Experimental data reported in article PMC6651341, “EDB-FN Targeted Peptide–Drug Conjugates for Use against Prostate Cancer” (International Journal of Molecular Sciences, 2019).
Where a SMILES comes first, the peptide text is derived from it. Bridges are numbered along the chain shown (N, C = ends). [ ]: non-standard residue; d: D form. Ahx = NCCCCCC(=O)O

Columns and labels:
EDB-FN = test: Confocal microscopy of FAM-tagged peptides, binding to EDB-FN; type: cell-based, human; conditions: C4-2 cells, 5 μg FAM-peptide, 12 h, confocal 60×
Protocol: Prostate cancer cell line (C4-2) was grown in RPMI medium containing 10% fetal bovine serum and 1% penicillin/streptomycin at the 37 °C in a 5% CO2 incubator. The culture medium was changed every 2–3 days until confluency was reached to 80%. Each cells group was treated with 5 μg of fluorescence-tagged peptides (17 and 18) for 12 h. A set of control groups was also prepared, which was not treated with peptides. Then all cells were fixed with 4% paraformaldehyde for 10 min and washed for 10 min (3 times with PBS). The cells were blocked in 1% FBS/PBS for 10 min and washed for 10 min (3 times with PBS). To target EDB-FN on the cell surface, the cells were incubated with a mouse monoclonal anti-fibronectin antibody (Abcam, Cambridge, MA, USA) (1:1000 dilution using 1% FBS/PBS) overnight at the 4 °C. The cells were washed for 10 min (3 times with PBS), and a Texas red-conjugated anti-mouse secondary antibody was used in 1% FBS/PBS (5:1000 dilution) at the room temperature for 1 h. Then cells were washed for 10 min (3 times with PBS), and at the end, nuclei were stained using DAPI and covered with coverslips. Representative images of cells were captured using a standard confocal microscope (Nikon Eclipse Ti-E, Nikon Instruments Inc., Melville, NY, USA) at 60× magnification, and the images were processed for binary contrast quantification.

C4-2 = test: MTS cell viability assay, C4-2 without TGF-β; type: cell-based, human; conditions: 5 µM, after 72 h, triplicate
Text: (§1) Human epithelial prostate cell line (RWPE-1, ATCC No. CRL-11610), human prostate cancer cell line (Human prostate carcinoma DU-145, ATCC No. HTB-81), human adenocarcinoma PC3, ATCC No. CRL-1435), androgen-sensitive human prostate adenocarcinoma cells (LNCaP, ATCC No. CRL-1740), and castration-resistant LNCaP-derived C4-2 (ATCC No. CRL-1595) were purchased from American Type Culture Collection (ATCC), Manassas, VA, USA. All the media, serum, and antibiotics were bought from American Type Culture Collection (ATCC) (Manassas, VA, USA) and Sigma life-science (St. Louis, MO, USA). Keratinocytes SFM (1×) with EGF + BPE was bought from Gibco life technologies (Thermo Fisher Scientific), Gaithersburg, MD, USA. CellTiter 96 was bought from Promega, Madison, WI, USA. Dithiothreitol (DTT) was bought from Thermo Fisher scientific, Carlsbad, CA, USA, and TGF-β was bought from Abcam, Boston, MA, USA.
(§2) Cell-proliferation assay using MTS reagent was conducted against five cell lines (RWPE-1, PC3, DU-145, LNCaP, and, C4-2). Cells were seeded into 96-well plates (5 × 10^3 cells for all the cells) and incubated with 100 µL of complete medium (RPMI-1640 for RWPE-1, DU-145, LNCaP, and C4-2; DMEM for PC3) overnight at 37 °C with 5% CO2. Various concentrations (0, 0.06, 0.6, 6, 60, 600 μM) of the peptide solution (20 μL) were added to cells to yield the final concentrations of peptide (0, 0.01, 0.1, 1, 10, 100 μM). The cells were kept in an incubator (37 °C, 5% CO2) for 24, 48, or 72 h accordingly for different treatment time responses. […] The absorbance was obtained at 490 nm using SpectraMax M2 microplate reader to detect the formazan product. […] The percentage of cell viability was calculated by [(OD value of cells treated with the test mixture of compounds) − (OD value of culture medium)] / [(OD value of control cells) − (OD value of culture medium)] × 100%. […] Cell viability was determined by measuring the absorbance at 490 nm using SpectraMax M2 microplate spectrophotometer, as mentioned above.

LNCaP = test: MTS cell viability assay, LNCaP; type: cell-based, human; conditions: 5 µM, after 72 h, triplicate
Text: as §1, with “Dithiothreitol (DTT) was bought from Thermo Fisher scientific, Carlsbad, CA, USA, and TGF-β was bought from Abcam, Boston, MA, USA.” left out
(§3) Cell-proliferation assay using MTS reagent was conducted against five cell lines (RWPE-1, PC3, DU-145, LNCaP, and, C4-2). […] The absorbance was obtained at 490 nm using SpectraMax M2 microplate reader to detect the formazan product. […] The percentage of cell viability was calculated by [(OD value of cells treated with the test mixture of compounds) − (OD value of culture medium)] / [(OD value of control cells) − (OD value of culture medium)] × 100%. […] Cell viability was determined by measuring the absorbance at 490 nm using SpectraMax M2 microplate spectrophotometer, as mentioned above.

[1] = test system: RWPE-1 normal human prostate epithelial cells; test: MTS cell viability assay, RWPE-1; type: cell-based; conditions: 5 µM, after 72 h, triplicate
Text: as §1, with “Dithiothreitol (DTT) was bought from Thermo Fisher scientific, Carlsbad, CA, USA, and TGF-β was bought from Abcam, Boston, MA, USA.” left out
as §3

PC3 = test: MTS cell viability assay, PC3; type: cell-based, human; conditions: 5 µM, after 72 h, MTS, triplicate
Text: as §1, §2

DU-145 = test: MTS cell viability assay, DU-145; type: cell-based, human; conditions: 5 µM, after 72 h, triplicate
Text: as §1, with “Dithiothreitol (DTT) was bought from Thermo Fisher scientific, Carlsbad, CA, USA, and TGF-β was bought from Abcam, Boston, MA, USA.” left out
as §3

Compound	increase in the peptide-stained area compared to peptide 17 (binary contrast quantification) (EDB-FN) [%]	cytotoxicity (C4-2)	cytotoxicity (LNCaP)	cytotoxicity [1]	cytotoxicity (PC3)	cytotoxicity (DU-145)
FAM-GFLG-C6-[KTVRTSADE] (sidechain bridge or staple) [compound 18]	48					
CC(C)C[C@H](NC(=O)[C@H](Cc1ccccc1)NC(=O)CNC(=O)[C@@H](N)CS)C(=O)NCC(=O)NCCCCCC(=O)N[C@H]1CCCCNC(=O)CC[C@@H](C(N)=O)NC(=O)[C@H](CC(=O)O)NC(=O)[C@H](C)NC(=O)[C@H](CO)NC(=O)[C@H]([C@@H](C)O)NC(=O)[C@H](CCCNC(=N)N)NC(=O)[C@H](C(C)C)NC(=O)[C@H]([C@@H](C)O)NC1=O [compound 9] (H-CGFLG[Ahx]KTVRTSADE-NH2; lactam 7-15)		did not show any significant cytotoxicity	did not show any significant cytotoxicity	did not show any significant cytotoxicity	did not show any significant cytotoxicity	did not show any significant cytotoxicity
